# The supplement of paper PMC10307832
# Columns and labels:
# Assay in all cases: relative viability (nuclei count vs DMSO), 5 days (fraction); higher = more cells survive
# NCI-H2347 = test system: NCI-H2347
# Outline: (§1)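 Relative viability equals treated-well nuclei counts divided by vehicle-well nuclei counts. Counts came from 4× images of lung cancer cell lines grown in 1536-well plates for 5 days after pin-tool dosing on the day after seeding. Dosing used one drug alone or a fixed anchor-drug dose plus five library-drug doses (not always all listed) in √10 steps, and values are medians of duplicate plates.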
# NCI-H3122 = test system: NCI-H3122
# Outline: as §1
# NCI-H596 = test system: NCI-H596
# Outline: as §1
# RERF-LC-KJ = test system: RERF-LC-KJ
# Outline: as §1
# NCI-H1792 = test system: NCI-H1792
# Outline: as §1
# NCI-H520 = test system: NCI-H520
# Outline: as §1
# NCI-H1563 = test system: NCI-H1563
# Outline: as §1
# NCI-H1355 = test system: NCI-H1355
# Outline: as §1
# PC-14 = test system: PC-14
# Outline: as §1
# LXF-289 = test system: LXF-289
# Outline: as §1
# SK-MES-1 = test system: SK-MES-1
# Outline: as §1
# NCI-H661 = test system: NCI-H661
# Outline: as §1
# NCI-H1651 = test system: NCI-H1651
# Outline: as §1
# LCLC-103H = test system: LCLC-103H
# Outline: as §1
# NCI-H441 = test system: NCI-H441
# Outline: as §1
# NCI-H460 = test system: NCI-H460
# Outline: as §1
# NCI-H1915 = test system: NCI-H1915
# Outline: as §1
# NCI-H1755 = test system: NCI-H1755
# Outline: as §1
# NCI-H727 = test system: NCI-H727
# Outline: as §1
# NCI-H322M = test system: NCI-H322M
# Outline: as §1
compound,measurement,setting,value
Cc1sc2c(c1C)C(c1ccc(Cl)cc1)=N[C@@H](CC(=O)OC(C)(C)C)c1nnc(C)n1-2 [JQ1] + Cc1nc(NC(=O)N2CCC[C@H]2C(N)=O)sc1-c1ccnc(C(C)(C)C(F)(F)F)c1 [Alpelisib] (partner 2 µM),relative viability,NCI-H2347; first compound 0.04 µM,0.982
same,relative viability,NCI-H2347; first compound 0.1265 µM,0.8
same,relative viability,NCI-H2347; first compound 0.4 µM,0.848
same,relative viability,NCI-H2347; first compound 1.265 µM,0.646
same,relative viability,NCI-H2347; first compound 4 µM,0.477
same,relative viability,NCI-H3122; first compound 0.04 µM,0.833
same,relative viability,NCI-H3122; first compound 0.1265 µM,0.771
same,relative viability,NCI-H3122; first compound 0.4 µM,0.963
same,relative viability,NCI-H3122; first compound 1.265 µM,0.661
same,relative viability,NCI-H3122; first compound 4 µM,0.663
same,relative viability,NCI-H596; first compound 0.04 µM,0.481
same,relative viability,NCI-H596; first compound 0.1265 µM,0.499
same,relative viability,NCI-H596; first compound 0.4 µM,0.437
same,relative viability,NCI-H596; first compound 1.265 µM,0.41
same,relative viability,NCI-H596; first compound 4 µM,0.343
same,relative viability,RERF-LC-KJ; first compound 0.04 µM,0.806
same,relative viability,RERF-LC-KJ; first compound 0.1265 µM,0.925
same,relative viability,RERF-LC-KJ; first compound 0.4 µM,0.793
same,relative viability,RERF-LC-KJ; first compound 1.265 µM,0.743
same,relative viability,RERF-LC-KJ; first compound 4 µM,0.427
same,relative viability,NCI-H1792; first compound 0.04 µM,0.702
same,relative viability,NCI-H1792; first compound 0.4 µM,0.722
same,relative viability,NCI-H1792; first compound 1.265 µM,0.411
same,relative viability,NCI-H1792; first compound 4 µM,0.364
same,relative viability,NCI-H520; first compound 0.04 µM,0.798
same,relative viability,NCI-H520; first compound 0.1265 µM,0.934
same,relative viability,NCI-H520; first compound 0.4 µM,0.667
same,relative viability,NCI-H520; first compound 1.265 µM,0.38
same,relative viability,NCI-H520; first compound 4 µM,0.268
same,relative viability,NCI-H1563; first compound 0.04 µM,0.846
same,relative viability,NCI-H1563; first compound 0.1265 µM,0.854
same,relative viability,NCI-H1563; first compound 0.4 µM,0.932
same,relative viability,NCI-H1563; first compound 1.265 µM,0.573
same,relative viability,NCI-H1563; first compound 4 µM,0.613
same,relative viability,NCI-H1355; first compound 0.04 µM,0.856
same,relative viability,NCI-H1355; first compound 0.1265 µM,0.84
same,relative viability,NCI-H1355; first compound 0.4 µM,0.71
same,relative viability,NCI-H1355; first compound 1.265 µM,0.508
same,relative viability,NCI-H1355; first compound 4 µM,0.438
same,relative viability,PC-14; first compound 0.04 µM,0.974
same,relative viability,PC-14; first compound 0.1265 µM,0.921
same,relative viability,PC-14; first compound 0.4 µM,0.885
same,relative viability,PC-14; first compound 1.265 µM,0.59
same,relative viability,PC-14; first compound 4 µM,0.351
same,relative viability,LXF-289; first compound 0.04 µM,1.02
same,relative viability,LXF-289; first compound 0.1265 µM,0.983
same,relative viability,LXF-289; first compound 0.4 µM,0.97
same,relative viability,LXF-289; first compound 1.265 µM,0.718
same,relative viability,LXF-289; first compound 4 µM,0.634
same,relative viability,SK-MES-1; first compound 0.04 µM,0.769
same,relative viability,SK-MES-1; first compound 0.1265 µM,0.68
same,relative viability,SK-MES-1; first compound 0.4 µM,0.733
same,relative viability,SK-MES-1; first compound 1.265 µM,0.456
same,relative viability,SK-MES-1; first compound 4 µM,0.27
same,relative viability,NCI-H661; first compound 0.04 µM,0.524
same,relative viability,NCI-H661; first compound 0.1265 µM,0.529
same,relative viability,NCI-H661; first compound 0.4 µM,0.71
same,relative viability,NCI-H661; first compound 1.265 µM,0.549
same,relative viability,NCI-H661; first compound 4 µM,0.465
same,relative viability,NCI-H1651; first compound 0.04 µM,0.882
same,relative viability,NCI-H1651; first compound 0.1265 µM,0.886
same,relative viability,NCI-H1651; first compound 0.4 µM,0.589
same,relative viability,NCI-H1651; first compound 1.265 µM,0.462
same,relative viability,NCI-H1651; first compound 4 µM,0.411
same,relative viability,LCLC-103H; first compound 0.04 µM,0.957
same,relative viability,LCLC-103H; first compound 0.1265 µM,0.828
same,relative viability,LCLC-103H; first compound 0.4 µM,0.751
same,relative viability,LCLC-103H; first compound 1.265 µM,0.572
same,relative viability,NCI-H441; first compound 0.04 µM,0.772
same,relative viability,NCI-H441; first compound 0.1265 µM,0.958
same,relative viability,NCI-H441; first compound 0.4 µM,0.692
same,relative viability,NCI-H441; first compound 1.265 µM,0.294
same,relative viability,NCI-H441; first compound 4 µM,0.444
same,relative viability,NCI-H460; first compound 0.04 µM,0.47
same,relative viability,NCI-H460; first compound 0.1265 µM,0.344
same,relative viability,NCI-H460; first compound 0.4 µM,0.257
same,relative viability,NCI-H460; first compound 1.265 µM,0.0483
same,relative viability,NCI-H460; first compound 4 µM,0.0414
same,relative viability,NCI-H1915; first compound 0.04 µM,1.05
same,relative viability,NCI-H1915; first compound 0.1265 µM,0.94
same,relative viability,NCI-H1915; first compound 0.4 µM,0.982
same,relative viability,NCI-H1915; first compound 1.265 µM,0.613
same,relative viability,NCI-H1915; first compound 4 µM,0.33
same,relative viability,NCI-H1755; first compound 0.04 µM,0.916
same,relative viability,NCI-H1755; first compound 0.1265 µM,0.918
same,relative viability,NCI-H1755; first compound 0.4 µM,1.01
same,relative viability,NCI-H1755; first compound 1.265 µM,0.623
same,relative viability,NCI-H1755; first compound 4 µM,0.533
same,relative viability,NCI-H727; first compound 0.04 µM,0.525
same,relative viability,NCI-H727; first compound 0.1265 µM,0.668
same,relative viability,NCI-H727; first compound 0.4 µM,0.445
same,relative viability,NCI-H727; first compound 1.265 µM,0.231
same,relative viability,NCI-H727; first compound 4 µM,0.222
same,relative viability,NCI-H322M; first compound 0.04 µM,0.752
same,relative viability,NCI-H322M; first compound 0.1265 µM,0.77
same,relative viability,NCI-H322M; first compound 0.4 µM,0.862
same,relative viability,NCI-H322M; first compound 1.265 µM,0.68
same,relative viability,NCI-H322M; first compound 4 µM,0.587
